Measurements as given in US20260274892A1, “MACROCYCLIC BROAD SPECTRUM ANTIBIOTICS” (RQx Pharmaceuticals, Inc., priority 2017, published 2026).

Test system: Escherichia coli ATCC 25922
Test: Minimum inhibitory concentration (MIC), CLSI broth micro-dilution, E. coli
Type: cell-based
Settings: Escherichia coli
Summary of the method: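 Antibacterial potency is measured as MIC by the CLSI broth dilution method. Bacteria at OD600 0.0005 in Tween-80-supplemented cation-adjusted Mueller Hinton broth face ten twofold compound dilutions for 22 h at 35° C.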

[1] = ATCC25922, Table 6, cation adjusted Mueller Hinton Broth + 0.002% Tween-80, 35° C., 22 hours
[2] = ATCC25922, 22 h, Table 7, cation adjusted Mueller Hinton Broth + 0.002% Tween-80, 35° C.

| MIC [2] [µM] | SMILES | MIC [1] [µM] | also measured |
| --- | --- | --- | --- |
| – | CC(=O)NCC[C@H](NC(=O)c1c(C)nc(-c2ccc(OC3CCCCC3)cc2)nc1C)C(=O)N(C)[C@@H]1C(=O)N[C@@H](C)C(=O)N[C@H](C(=O)NCC#N)Cc2ccc(OCCN)c(c2)-c2cc1ccc2OCCN [Compound 496, (8S,11S,14S)-14-[[(2S)-4-acetamido-2-[[2-[4-(cyclohexoxy)phenyl]-4,6-dimethyl-pyrimidine-5-carbonyl]amino]butanoyl]-methyl-amino]-3,18-bis(2-aminoethoxy)-N-(cyanomethyl)-11-methyl-10,13-dioxo-9,12-diazatricyclo[13.3.1.12,6]icosa-1(18),2(20),3,5,15(19),16-hexaene-8-carboxamide] | 1 | – |
| – | Cc1nc(C#CC(C)(C)C)ncc1C(=O)N[C@@H](CCN)C(=O)N(C)[C@@H]1C(=O)N[C@@H](C)C(=O)N[C@H](C(=O)NCC#N)Cc2ccc(OCCN)c(c2)-c2cc1ccc2OCCN (racemic) [Compound 228, rac-(8S,11S,14S)-3,18-bis(2-aminoethoxy)-N-(cyanomethyl)-11-methyl-14-[methyl-[rac-(2S)-4-amino-2-[[2-(3,3-dimethylbut-1-ynyl)-4-methyl-pyrimidine-5-carbonyl]amino]butanoyl]amino]-10,13-dioxo-9,12-diazatricyclo[13.3.1.12,6]icosa-1(18),2(20),3,5,15(19),16-hexaene-8-carboxamide] | 2.3 | – |
| – | Cc1cc(C(C)(C)C)ccc1-c1ccc(C(=O)N[C@@H](CCN)C(=O)N(C)[C@@H]2C(=O)N[C@@H](C)C(=O)N[C@H](C(=O)NCC#N)Cc3ccc(OCCN)c(c3)-c3cc2ccc3OCCN)c(C)n1 (racemic) [Compound 210, rac-(8S,11S,14S)-3,18-bis(2-aminoethoxy)-N-(cyanomethyl)-11-methyl-14-[methyl-[rac-(2S)-4-amino-2-[[6-(4-tert-butyl-2-methyl-phenyl)-2-methyl-pyridine-3-carbonyl]amino]butanoyl]amino]-10,13-dioxo-9,12-diazatricyclo[13.3.1.12,6]icosa-1(18),2(20),3,5,15(19),16-hexaene-8-carboxamide] | 0.35 | – |
| 0.5 | Cc1nc(-c2ccc(OC3CCCCC3)cc2)nc(C)c1C(=O)N[C@@H](CNS(N)(=O)=O)C(=O)N(C)[C@@H]1C(=O)N[C@@H](C)C(=O)N[C@H](C(=O)NCC#N)Cc2ccc(OCCCN)c(c2)-c2cc1ccc2OCCCN (racemic) [Compound 576, rac-(8S,11S,14S)-3,18-bis(3-aminopropoxy)-N-(cyanomethyl)-11-methyl-14-[methyl-[rac-(2S)-2-[[2-[4-(cyclohexoxy)phenyl]-4,6-dimethyl-pyrimidine-5-carbonyl]amino]-3-(sulfamoylamino)propanoyl]amino]-10,13-dioxo-9,12-diazatricyclo[13.3.1.12,6]icosa-1(18),2(20),3,5,15(19),16-hexaene-8-carboxamide] | – | – |
| 0.5 | Cc1nc(-c2ccc(C(C)(C)C)cc2)nc(C)c1C(=O)N[C@@H](CCN)C(=O)N(C)[C@@H]1C(=O)N[C@@H](C)C(=O)N[C@H](C(=O)NCC#N)Cc2ccc(O)c(c2)-c2cc1ccc2OCCCNC(=N)N (racemic) [Compound 596, rac-(8S,11S,14S)-N-(cyanomethyl)-18-(3-guanidinopropoxy)-3-hydroxy-11-methyl-14-[methyl-[rac-(2S)-4-amino-2-[[2-(4-tert-butylphenyl)-4,6-dimethyl-pyrimidine-5-carbonyl]amino]butanoyl]amino]-10,13-dioxo-9,12-diazatricyclo[13.3.1.12,6]icosa-1(18),2(20),3,5,15(19),16-hexaene-8-carboxamide] | – | – |
| – | Cc1nc(-c2ccc(C(C)(C)C)cc2)nc(C)c1C(=O)N[C@@H](CNS(N)(=O)=O)C(=O)N(C)[C@@H]1C(=O)N[C@@H](C)C(=O)N[C@H](C(=O)NCC#N)Cc2ccc(OCCN)c(c2)-c2cc1cc(OCCNC(=N)N)c2O (racemic) [Compound 590, rac-(8S,11S,14S)-3-(2-aminoethoxy)-N-(cyanomethyl)-17-(2-guanidinoethoxy)-18-hydroxy-11-methyl-14-[methyl-[rac-(2S)-2-[[2-(4-tert-butylphenyl)-4,6-dimethyl-pyrimidine-5-carbonyl]amino]-3-(sulfamoylamino)propanoyl]amino]-10,13-dioxo-9,12-diazatricyclo[13.3.1.12,6]icosa-1(18),2(20),3,5,15(19),16-hexaene-8-carboxamide] | – | MIC (ATCC25922, Table 7, cation adjusted Mueller Hinton Broth + 0.002% Tween-80, 35° C., 22 hours): 0.38 µM |
| 0.19 | COc1c(OCCN)cc2cc1-c1cc(cc(OCCN)c1OC)[C@H](N(C)C(=O)[C@H](CCN)NC(=O)c1c(C)nc(-c3ccc(C(C)(C)C)cc3)nc1C)C(=O)N[C@@H](C)C(=O)N[C@H](C(=O)NCC#N)C2 (racemic) [Compound 592, rac-(8S,11S,14S)-4,17-bis(2-aminoethoxy)-N-(cyanomethyl)-3,18-dimethoxy-11-methyl-14-[methyl-[rac-(2S)-4-amino-2-[[2-(4-tert-butylphenyl)-4,6-dimethyl-pyrimidine-5-carbonyl]amino]butanoyl]amino]-10,13-dioxo-9,12-diazatricyclo[13.3.1.12,6]icosa-1(18),2(20),3,5,15(19),16-hexaene-8-carboxamide] | – | – |
| 0.5 | Cc1nc(-c2ccc(C(C)(C)C)cc2)nc(C)c1C(=O)N[C@@H](CCN)C(=O)N(C)[C@@H]1C(=O)N[C@@H](C)C(=O)N[C@H](C(=O)NCC#N)Cc2ccc(OC3CCNCC3)c(c2)-c2cc1ccc2O (racemic) [Compound 609, rac-(8S,11S,14S)-N-(cyanomethyl)-18-hydroxy-11-methyl-14-[methyl-[rac-(2S)-4-amino-2-[[2-(4-tert-butylphenyl)-4,6-dimethyl-pyrimidine-5-carbonyl]amino]butanoyl]amino]-10,13-dioxo-3-(4-piperidyloxy)-9,12-diazatricyclo[13.3.1.12,6]icosa-1(18),2(20),3,5,15(19),16-hexaene-8-carboxamide] | – | – |
| – | Cc1nc(-c2ccc(OC3CCCCC3)cc2)nc(C)c1C(=O)N[C@@H](CCNC(=O)NO)C(=O)N(C)[C@@H]1C(=O)N[C@@H](C)C(=O)N[C@H](C(=O)NCC#N)Cc2ccc(OCCN)c(c2)-c2cc1ccc2OCCN [Compound 512, (8S,11S,14S)-3,18-bis(2-aminoethoxy)-N-(cyanomethyl)-14-[[(2S)-2-[[2-[4-(cyclohexoxy)phenyl]-4,6-dimethyl-pyrimidine-5-carbonyl]amino]-4-(hydroxycarbamoylamino)butanoyl]-methyl-amino]-11-methyl-10,13-dioxo-9,12-diazatricyclo[13.3.1.12,6]icosa-1(18),2(20),3,5,15(19),16-hexaene-8-carboxamide] | – | MIC (ATCC25922, 22 h, Table 6, cation adjusted Mueller Hinton Broth + 0.002% Tween-80, 35° C.): 1 µM |
| – | Cc1nc(-c2ccc(OCC(C)(C)C)cc2)ncc1C(=O)N[C@@H](CCN)C(=O)N(C)[C@@H]1C(=O)N[C@@H](C)C(=O)N[C@H](C(=O)NCC#N)Cc2ccc(OCCN)c(c2)-c2cc1ccc2OCCN (racemic) [Compound 252, rac-(8S,11S,14S)-3,18-bis(2-aminoethoxy)-N-(cyanomethyl)-11-methyl-14-[methyl-[rac-(2S)-4-amino-2-[[2-[4-(2,2-dimethylpropoxy)phenyl]-4-methyl-pyrimidine-5-carbonyl]amino]butanoyl]amino]-10,13-dioxo-9,12-diazatricyclo[13.3.1.12,6]icosa-1(18),2(20),3,5,15(19),16-hexaene-8-carboxamide] | 0.097 | – |
